Where two headings read alike, the source gives them in different places.
Columns and labels:
CDK2/cyclin A = molecular target: T1, CDK2/cyclin A (Homo sapiens, UniProt P24941); assay: Inhibition of CDK2/Cyclin A Retinoblastoma Kinase Activity; format: biochemical; conditions: for Ki: apparent Ki; for inhibition at 10 µM: read-out: CDK2/A % inhibition at 10 μM
T1 construct: made in house; host or cells: CDK2: insect cells (baculovirus); cyclin A: E. coli
Procedure: (§1) Cyclin-dependent kinase activity was measured by quantifying the enzyme-catalyzed, time-dependent incorporation of radioactive phosphate from [^32P]ATP or [^33P]ATP into a protein substrate. Unless noted otherwise, assays were performed in 96-well plates in a total volume of 50 μL, in the presence of 10 mM HEPES (N-[2-hydroxyethyl]piperazine-N′-[2-ethanesulfonic acid]) (pH 7.4), 10 mM MgCl2, 25 μM adenosine triphosphate (ATP), 1 mg/mL ovalbumin, 5 μg/mL leupeptin, 1 mM dithiothreitol, 10 mM beta-glycerophosphate, 0.1 mM sodium vanadate, 1 mM sodium fluoride, 2.5 mM ethylene glycol-bis(β-aminoethyl ethKer)-N,N,N′N′-tetraacetic acid (EGTA), 2% (v/v) dimethylsulfoxide, and 0.03–0.4 μCi [^32/33P]ATP per reaction. Reactions were initiated with appropriate enzyme, incubated at 30° C., and terminated after 20 minutes by the addition of ethylenediaminetetraacetic acid (EDTA) to 250 mM. The phosphorylated substrate was then captured on a nitrocellulose or phosphocellulose membrane using a 96-well filtration manifold, and unincorporated radioactivity was removed by repeated washing with 0.85% phosphoric acid. Radioactivity was quantified by exposing the dried membranes to a phosphorimager.
(§2) Apparent Ki values were measured by assaying enzyme activity in the presence of different inhibitor compound concentrations and subtracting the background radioactivity measured in the absence of enzyme. Inhibition data were fit to an equation for competitive inhibition using Kaleidagraph (Synergy Software), or were fit to an equation for competitive tight-binding inhibition using the software KineTic (BioKin, Ltd.).
Inhibition of CDK2/Cyclin A Retinoblastoma Kinase Activity
CDK2 was purified using published methodology (Rosenblatt et al., “Purification and Crystallization of Human Cyclin-dependent Kinase 2,” J. Mol. Biol., vol. 230, 1993, pp. 1317–1319) from insect cells that had been infected with a baculovirus expression vector. […] A complex of CDK2 and proteolyzed cyclin A was prepared and purified by gel filtration. The substrate for this assay was the same Rb substrate fragment used for the CDK4 assays, and the methodology of the CDK2/cyclin A and the CDK4/cyclin D3 assays was essentially the same, except that CDK2 was present at 150 nM or 5 nM. Ki values were measured as described above.

CDK4/cyclin D3 = CDK4/cyclin D3 (Homo sapiens, UniProt P11802); assay: Inhibition of CDK4/Cyclin D Retinoblastoma Kinase Activity; format: biochemical; conditions: for inhibition at 10 µM: read-out: CDK4/D % inhibition at 10 μM; for Ki: apparent Ki
Procedure: as §1, §2
Inhibition of CDK4/Cyclin D Retinoblastoma Kinase Activity
A complex of human CDK4 and cyclin D3, or a complex of human CDK4 and genetically truncated (1–264) cyclin D3, was purified using traditional biochemical chromatographic techniques from insect cells that had been co-infected with the corresponding baculovirus expression vectors (see e.g., Meijer and Kim, “Chemical Inhibitors of Cyclin-Dependent Kinases,” Methods in Enzymol,. vol. 283 (1997), pp. 113–128.). The enzyme complex (5 or 50 nM) was assayed with 0.3–0.5 μg of purified recombinant retinoblastoma protein fragment (Rb) as a substrate. The engineered Rb fragment (residues 386–928 of the native retinoblastoma protein; 62.3 kDa) contains the majority of the phosphorylation sites found in the native 106-kDa protein, as well as a tag of six histidine residues for ease of purification. Phosphorylated Rb substrate was captured by microfiltration on a nitrocellulose membrane and quantified using a phosphorimager as described above. For measurement of tight-binding inhibitors, the enzyme complex concentration was lowered to 5 nM, and the assay duration was extended to 60 minutes, during which the time-dependence of product formation was linear.

HCT 116 cell line = assay: Inhibition of Cell Growth (MTT tetrazolium salt assay); format: cell-based; conditions: Homo sapiens
Procedure: Inhibition of Cell Growth: Assessment of Cytotoxicity
Inhibition of cell growth was measured using the tetrazolium salt assay, which is based on the ability of viable cells to reduce 3-(4,5-dimethylthiazol-2-yl)-2,5-[2H]-diphenyltetrazolium bromide (MTT) to formazan (Mossman, Journal of Immunological Methods, vol. 65 (1983), pp. 55–58). The water-insoluble purple formazan product was then detected spectrophotometrically. The HCT 116 cell line was grown in 96-well plates. Cells were plated in the appropriate medium at a volume of 135 μl/well in McCoy's 5A Medium. Plates were incubated for four hours before addition of inhibitor compounds. Different concentrations of inhibitor compounds were added in 0.5% (v/v) dimethylsulfoxide (15 μL/well), and cells were incubated at 37° C. (5% CO2) for four to six days (depending on cell type). At the end of the incubation, MTT was added to a final concentration of 0.2 mg/mL, and cells were incubated for 4 hours more at 37° C. After centrifugation of the plates and removal of medium, the absorbance of the formazan (solubilized in dimethylsulfoxide) was measured at 540 nm. The concentration of inhibitor compound causing 50% inhibition of growth was determined from the linear portion of a semi-log plot of inhibitor concentration versus percentage inhibition. All results were compared to control cells treated only with 0.5% (v/v) dimethylsulfoxide.

[1] = HCT 116, MTT, 50% inhibition of growth, read-out: HCT 116 IC50
[2] = HCT 116, MTT, IC90, read-out: HCT 116 IC90

Chain of CDK4/cyclin D3 (P11802 2-303 limits assumed): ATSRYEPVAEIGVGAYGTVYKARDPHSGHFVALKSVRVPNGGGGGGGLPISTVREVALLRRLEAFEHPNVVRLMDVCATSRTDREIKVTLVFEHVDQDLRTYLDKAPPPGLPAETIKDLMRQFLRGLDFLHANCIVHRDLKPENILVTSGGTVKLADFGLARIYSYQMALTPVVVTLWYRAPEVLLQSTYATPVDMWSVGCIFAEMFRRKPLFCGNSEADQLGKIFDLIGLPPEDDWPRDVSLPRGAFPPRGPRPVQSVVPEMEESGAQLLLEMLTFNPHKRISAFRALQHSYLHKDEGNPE
Chain of CDK4/cyclin D3 (P30281 1-264 limits assumed, further chain): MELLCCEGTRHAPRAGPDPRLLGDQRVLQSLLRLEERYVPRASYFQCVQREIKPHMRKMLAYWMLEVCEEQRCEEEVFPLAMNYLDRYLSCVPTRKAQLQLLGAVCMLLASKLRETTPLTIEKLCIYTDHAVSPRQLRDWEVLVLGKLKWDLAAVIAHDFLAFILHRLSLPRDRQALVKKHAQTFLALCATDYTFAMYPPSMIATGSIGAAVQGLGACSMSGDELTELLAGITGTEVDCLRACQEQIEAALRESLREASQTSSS

Row | SMILES | Ki (CDK2/cyclin A) | Ki (CDK4/cyclin D3) | further results
1 | Cc1ccccc1-c1ccc2[nH]nc(-c3ccccc3)c2c1 [Example 11, 5-(2-Methylphenyl)-3-phenyl-1H-indazole] | 2600 nM |  | inhibition at 10 µM (CDK4/cyclin D3): 39%
2 | Fc1cccc(F)c1-c1ccc2[nH]nc(-c3ccccc3)c2c1 [Example 83, 5-(2,6-Difluorophenyl)-3-Phenyl-1H-indazole] |  |  | inhibition at 10 µM (CDK2/cyclin A): 30%; inhibition at 10 µM (CDK4/cyclin D3): 30%
3 | C(=C\c1ccc2[nH]nc(/C=C/c3ccccc3)c2c1)/c1ccccc1 [Example 2, 3,5-Distyryl-1H-Indazole] |  | 7900 nM | 
4 | c1c[nH]c(-c2n[nH]c3ccc(-c4ccncc4)cc23)c1 [Example 18, 5-(4Pyridyl)-3-(2-Pyrrolyl)-1H-indazole] |  | 960 nM | 
5 | Cc1cnccc1-c1ccc2[nH]nc(/C=C/c3ccccc3)c2c1 [Example 41, 5-(3-Methyl-pyridin-4-yl)-3-(E)-styryl-1H-indazole] | 250 nM | 78 nM | 
6 | O=[N+]([O-])c1ccc2[nH]nc(-c3ccc[nH]3)c2c1 [18b′, 5-Nitro-3-(2-Pyrrolyl)-1H-indazole] | 3300 nM | 6600 nM | 
7 | Cc1nc(-c2n[nH]c3ccc(-c4cncc5ccccc45)cc23)[nH]c1-c1ccccc1 [Example 67, 4-[3-(4-Methyl-5-phenyl-1H-imidazol-2-yl)-1H-indazol-5-yl]-isoquinoline] | 16 nM | 220 nM | IC50 (HCT 116 cell line; HCT-116, read-out: HCT 116 IC50 (uM)): 2 µM; IC90 (HCT 116 cell line; HCT-116, read-out: HCT 116 IC90 (uM)): 4.7 µM
8 | COc1cccc(-c2ccc3[nH]nc(-c4ccccc4)c3c2)c1 [Example 86, 5-(3-Methoxyphenyl)-3-(phenyl)-1H-indazole] |  |  | inhibition at 10 µM (CDK2/cyclin A): 45%; inhibition at 10 µM (CDK4/cyclin D3): 18%
9 | c1ccc(CNc2ccc3[nH]nc(-c4ccc[nH]4)c3c2)cc1 [Example 85, 5-(Benzylamino)-3-(2-Pyrrolyl)-1H-indazole] | 6600 nM | 16000 nM | 
10 | O=[N+]([O-])c1ccc2[nH]nc(-c3ccccc3)c2c1 [Intermediate 11a, 5-Nitro-3-phenyl-1H-indazole] | 13000 nM |  | inhibition at 100 µM (CDK4/cyclin D3; read-out: CDK4/D % inhibition at 100 μM): 48%
11 | Cc1cc(O)ccc1-c1ccc2[nH]nc(-c3ccccc3)c2c1 [Example 13, 5-(4-Hydroxy-2-methylphenyl)-3-phenyl-1H-indazole] | 2700 nM | 3400 nM | 
12 | c1ccc(-c2n[nH]c3ccc(-c4ccncc4)cc23)cc1 [Example 14, 3-Phenyl-5-(Pyrid-4-yl)-1H-indazole] | 2500 nM | 2400 nM | 
13 | FC(F)(F)c1ccccc1-c1ccc2[nH]nc(-c3ccccc3)c2c1 [Example 12, 3-Phenyl-5-[2-(trifluormethyl)phenyl]-1H-indazole] | 6300 nM |  | CDK4/D % inhibition at 5 μM (CDK4/cyclin D3; at 5 μM): 19%
14 | c1ccc(-c2n[nH]c3ccc(-c4cccnc4)cc23)cc1 [Example 14b, 3-Phenyl-5-(pyrid-3-yl)-1H-indazole] |  |  | inhibition at 1 µM (CDK4/cyclin D3; read-out: CDK4/D % inhibition at 1 μM): 20%

Second part, led by results:

Row | Ki (CDK2/cyclin A) | Ki (CDK4/cyclin D3) | SMILES | further results
15 | 72 nM | 83 nM | Cc1c(-c2ccc3[nH]nc(-c4nc5ccccc5[nH]4)c3c2)ccc(CCCO)c1O [Example 26, 3-[3-(1H-Benzoimidazol-2-yl)-1H-indazol-5-yl]-6-(3-hydroxy-propyl)-2-methyl-phenol] | IC50 (HCT 116 cell line; [1]): 2.8 µM; IC90 (HCT 116 cell line; [2]): 5 µM
16 | 400 nM | 1100 nM | Oc1cc(F)cc(F)c1-c1ccc2[nH]nc(-c3nc4ccccc4[nH]3)c2c1 [Example 51] | 
17 | 2.7 nM | 7.8 nM | Cc1c(CNC2CCCC2)cncc1-c1ccc2[nH]nc(-c3nc4ccccc4[nH]3)c2c1 [Example 92, {5-[3-(1H-Benzoimidazol-2-yl)-1H-indazol-5-yl]-4-methyl-pyridin-3-ylmethyl}-cyclopentyl-amine] | IC50 (HCT 116 cell line; [1]): 0.18 µM; IC90 (HCT 116 cell line; [2]): 0.5 µM
18 | 1.4 nM | 9.8 nM | Cc1cncc(-c2ccc3[nH]nc(-c4nc5ccccc5[nH]4)c3c2)c1C [Example 75] | IC50 (HCT 116 cell line; [1]): 0.4 µM; IC90 (HCT 116 cell line; [2]): 1.3 µM
19 | 0.38 nM | 2.2 nM | c1ccc2c(-c3ccc4[nH]nc(-c5nc6c(Cn7ccnc7)cccc6[nH]5)c4c3)cncc2c1 [Example 40, 4-[3-(4-Imidazol-1-ylmethyl-1H-benzoimidazol-2-yl)-1H-indazol-5-yl]-isoquinoline] | 
20 | 1.4 nM | 3.5 nM | Cc1c(CNCc2ccccc2)cncc1-c1ccc2[nH]nc(-c3nc4ccccc4[nH]3)c2c1 [Example 88, {5-[3-(1H-Benzoimidazol-2-yl)-1H-indazol-5-yl]-4-methyl-pyridin-3-ylmethyl}-benzyl-amine] | IC50 (HCT 116 cell line; [1]): > 0.5 µM; IC90 (HCT 116 cell line; [2]): > 0.5 µM
21 | 1.9 nM | 4.2 nM | Cc1c(CNCC(C)C)cncc1-c1ccc2[nH]nc(-c3nc4ccccc4[nH]3)c2c1 [Example 87, {5-[3-(1H-Benzoimidazol-2-yl)-1H-indazol-5-yl]-4-methyl-pyridin-3-ylmethyl}-isobutyl-amine] | IC50 (HCT 116 cell line; [1]): 0.16 µM; IC90 (HCT 116 cell line; [2]): 0.42 µM
22 | 1 nM | 55 nM | c1ccc2c(-c3ccc4[nH]nc(-c5nc6c([nH]5)CCCC6)c4c3)cncc2c1 [Example 66, 4-[3-(4,5,6,7-Tetrahydro-1H-benzoimidazol-2-yl)-1H-indazol-5-yl]-isoquinoline] | IC50 (HCT 116 cell line; [1]): 0.49 µM; IC90 (HCT 116 cell line; [2]): 1.6 µM
23 | 790 nM | 1200 nM | COc1ccc(-c2ccc3[nH]nc(-c4nc5ccccc5[nH]4)c3c2)cc1 [Example 7′, 3-(1H-Benzoimidazol-2-yl)-5-(4-methoxyphenyl)-1H-indazole] | 
24 |  | 110 nM | CCNCc1cncc(-c2ccc3[nH]nc(-c4nc5c(NC(C)=O)cccc5[nH]4)c3c2)c1C [Example 82, N-2-[5-(5-Ethylaminomethyl-4-methyl-pyridin-3-yl)-1H-indazol-3-yl-1 benzoimidazol-4-yl]-acetamide] | IC90 (HCT 116 cell line; [2]): > 0.5 µM
25 | 370 nM | 590 nM | Oc1ccc(-c2ccc3[nH]nc(-c4nc5ccccc5[nH]4)c3c2)cc1 [8′, 4-[3-(1H-Benzoimidazol-2-yl)-1H-indazol-5-yl]-phenol] | 
26 |  | 14 nM | CCNCc1cncc(-c2ccc3[nH]nc(-c4nc5c(C(=O)NC)cccc5[nH]4)c3c2)c1C [Example 80, 2-[5-(5-Ethylaminomethyl-4-methyl-pyridin-3-yl)-1H-indazol-3-yl]-1H benzoimidazole-4carboxylic acid methylamide] | IC90 (HCT 116 cell line; [2]): 0.22 µM
27 | 670 nM | 2200 nM | COc1cccc(-c2ccc3[nH]nc(-c4nc5ccccc5[nH]4)c3c2)c1C [Example 9′, 3-(1H-Benzoimidazol-2-yl)-5-(3-methoxy-2-methyl-phenyl)-1H-indazole] | 

— patent US7232912B2, “Indazole compounds, pharmaceutical compositions, and methods for mediating or inhibiting cell proliferation” (Agouron Pharmaceuticals, Inc., priority 2000, dated 2007)
